This passage reports IC50 results from US20240327430A1 (Breakpoint Therapeutics GmbH, priority 2023, published 2024).

pIC50: −log10 of the molar value. A value given as a limit tells only on which side of the number the result lay.

truncated Polθ protein (Polθ-Hel containing the helicase domain (67-894)), sequence (O75417 67-894): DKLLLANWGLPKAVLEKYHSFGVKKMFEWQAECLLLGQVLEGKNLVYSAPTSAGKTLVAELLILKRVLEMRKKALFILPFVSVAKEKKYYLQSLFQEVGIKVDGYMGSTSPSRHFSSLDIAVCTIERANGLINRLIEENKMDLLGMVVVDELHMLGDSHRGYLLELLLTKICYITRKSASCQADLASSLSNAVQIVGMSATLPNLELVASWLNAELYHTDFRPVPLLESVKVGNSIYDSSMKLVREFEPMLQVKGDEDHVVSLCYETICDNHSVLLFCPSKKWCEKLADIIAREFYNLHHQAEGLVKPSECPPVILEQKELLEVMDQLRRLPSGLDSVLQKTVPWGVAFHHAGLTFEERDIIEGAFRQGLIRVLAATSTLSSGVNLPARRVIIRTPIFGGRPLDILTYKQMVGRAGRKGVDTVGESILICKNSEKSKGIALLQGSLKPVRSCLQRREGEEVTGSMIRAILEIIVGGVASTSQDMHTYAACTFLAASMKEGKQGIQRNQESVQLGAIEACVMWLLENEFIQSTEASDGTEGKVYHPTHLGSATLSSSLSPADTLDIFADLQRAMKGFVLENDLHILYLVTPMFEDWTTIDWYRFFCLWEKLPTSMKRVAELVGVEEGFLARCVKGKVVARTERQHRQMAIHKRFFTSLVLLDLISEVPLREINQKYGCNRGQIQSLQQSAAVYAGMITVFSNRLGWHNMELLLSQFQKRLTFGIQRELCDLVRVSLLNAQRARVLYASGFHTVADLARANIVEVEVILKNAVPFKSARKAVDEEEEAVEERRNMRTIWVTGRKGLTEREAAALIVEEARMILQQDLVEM

One test addresses truncated Polθ protein (Polθ-Hel containing the helicase domain (67-894)) (Homo sapiens (Human), UniProt O75417). Kind of test: Polθ ATPase assay (Biological Assay 1, ADP-Glo luminescence). Type of test: biochemical. To be noted: Polθ-Hel 0.5 nM, DNA substrate 500 nM, ATP 60 μM, 23° C.; read-out: Pole ATPase assay IC50. The procedure:
The Polθ ATPase assay was used to evaluate inhibitors of Polθ ATPase activity, in vitro. Experiments were performed using a truncated Polθ protein (Polθ-Hel containing the helicase domain (67-894), ATP and a DNA single strand Oligo (5′-CTGTCCTGCATGATG-3′) in the Polθ assay buffer (20 mM Tis-HCl (pH 8.8), MgCl2 5 mM, tween20 0.01%, NP40 0.01%, BSA 0.01%, DTT 1 mM). 2 μL of assay buffer containing Pole-Hel protein (0.5 nM) and DNA substrate (500 nM) was transferred into assay ready plates, containing 0.04 μL of compounds diluted in DMSO. After a 30 minutes incubation at 23° C. in the dark, the reaction was triggered by adding 2 μL of ATP (60 μM), in assay buffer. After 60 minutes at 23° C., 4 μl of ADP-Glo™ Reagent (Glo 1) was added followed by 40 minutes of incubation, then 8 μl of ADP-Glom kinase Detection Reagent (Glo 2) followed by 60 minutes of incubation at 23° C. Luminescence was then measured using Tecan F200 infinite plate reader. Raw data were analysed using GeneData to generate IC50 values.
The Polθ ATPase assay described in Biological Assay 1 above was used to evaluate inhibitors of Polθ ATPase activity for the compounds described in the Experimental Part B above, in vitro.
In general terms: In ADP-Glo the light output rises with the ADP produced.
As for `COc1cnc(Cl)cc1-c1cc(C)ncc1C(=O)Nc1nc2cnc(N3CCC4(COC4)C3)nc2s1` [Example 76, 2′-chloro-5′-methoxy-6-methyl-N-(5-{2-oxa-6-azaspiro[3.4]octan-6-yl}-[1,3]thiazolo[5,4-d]pyrimidin-2-yl)-[4,4′-bipyridine]-3-carboxamide], the pIC50 is > 7.00. The same measure, in the same setting: to `COc1cnc(Cl)cc1-c1cc(C)ncc1C(=O)Nc1nc2cnc(NCC(C)C)nc2s1` [Example 78, 2′-chloro-5′-methoxy-6-methyl-N-{5-[(2-methylpropyl)amino]-[1,3]thiazolo[5,4-d]pyrimidin-2-yl}-[4,4′-bipyridine]-3-carboxamide] belongs > 7.00. For `COc1cnc(Cl)cc1-c1cc(C)ncc1C(=O)Nc1nc2cnc(N3CC[C@@H](O)C3)nc2s1` [Example 26, 2′-chloro-N-{5-[(3R)-3-hydroxypyrrolidin-1-yl]-[1,3]thiazolo[5,4-d]pyrimidin-2-yl}-5′-methoxy-6-methyl-[4,4′-bipyridine]-3-carboxamide], the pIC50 is > 7.00. The same measure, in the same setting: in the case of `COc1cnc(Cl)cc1-c1cc(C)ncc1C(=O)Nc1nc2ccc(N3CCCC3=O)cc2s1` [Example 56, 2′-chloro-5′-methoxy-6-methyl-N-[6-(2-oxopyrrolidin-1-yl)-1,3-benzothiazol-2-yl]-[4,4′-bipyridine]-3-carboxamide] it was > 7.00. Still for that read-out and setting: in the case of `COc1ccccc1-c1cnccc1C(=O)Nc1nc2cc(C(F)(F)F)ccc2s1` [Example 12, 3-(2-methoxyphenyl)-N-[5-(trifluoromethyl)-1,3-benzothiazol-2-yl]pyridine-4-carboxamide] it was < 6.00; in that of `COc1cnc(Cl)cc1-c1cc(C)ncc1C(=O)Nc1nc2cnc(N3CC[C@H](O)C3)nc2s1` [Example 23, 2′-chloro-N-{5-[(3S)-3-hydroxypyrrolidin-1-yl]-[1,3]thiazolo[5,4-d]pyrimidin-2-yl}-5′-methoxy-6-methyl-[4,4′-bipyridine]-3-carboxamide], > 7.00. Same read-out and setting: to `COc1cnc(Cl)cc1-c1cc(C)ncc1C(=O)Nc1nc2cnc(N3CC(O)C3)nc2s1` [Example 31, 2′-chloro-N-[5-(3-hydroxyazetidin-1-yl)-[1,3]thiazolo[5,4-d]pyrimidin-2-yl]-5′-methoxy-6-methyl-[4,4′-bipyridine]-3-carboxamide] belongs > 7.00; to `COc1cnc(Cl)cc1-c1cc(C)ncc1C(=O)Nc1nc2cnc(N3CCCCC3=O)cc2s1` [Example 61, 2′-chloro-5′-methoxy-6-methyl-N-[6-(2-oxopiperidin-1-yl)-[1,3]thiazolo[4,5-c]pyridin-2-yl]-[4,4′-bipyridine]-3-carboxamide], > 7.00; to `COc1cnc(Cl)cc1-c1cc(C)ncc1C(=O)Nc1nc2cnc(N3CCN(C(C)=O)CC3)nc2s1` [Example 45, N-[5-(4-acetylpiperazin-1-yl)-[1,3]thiazolo[5,4-d]pyrimidin-2-yl]-2′-chloro-5′-methoxy-6-methyl-[4,4′-bipyridine]-3-carboxamide], > 7.00. `COc1cnc(Cl)cc1-c1cc(C)ncc1C(=O)Nc1nc2cnc(N3CC4(COC4)C3)nc2s1` [Example 29, 2′-chloro-5′-methoxy-6-methyl-N-(5-{2-oxa-6-azaspiro[3.3]heptan-6-yl}-[1,3]thiazolo[5,4-d]pyrimidin-2-yl)-[4,4′'-bipyridine]-3-carboxamide]: the pIC50 was > 7.00. Same read-out and setting: to `COc1cnc(Cl)cc1-c1cc(C)ncc1C(=O)Nc1nc2cnc(N3CC4CCC(C3)N4)nc2s1` [Example 54, 2′-chloro-N-(5-{3,8-diazabicyclo[3.2.1]octan-3-yl}-[1,3]thiazolo[5,4-d]pyrimidin-2-yl)-5′-methoxy-6-methyl-[4,4′-bipyridine]-3-carboxamide] belongs > 7.00; to `COc1cnc(Cl)cc1-c1cc(C)ncc1C(=O)Nc1nc2ccncc2s1` [Example 44, 2′-chloro-5′-methoxy-6-methyl-N-{[1,3]thiazolo[5,4-c]pyridin-2-yl}-[4,4′-bipyridine]-3-carboxamide], > 7.00. Still for that read-out and setting: to `COc1cnc(Cl)cc1-c1cc(C)ncc1C(=O)Nc1nc2cnc(N3CCCC(C#N)C3)nc2s1` (stereo not drawn) [Example 35, 2′-chloro-N-[5-(3-cyanopiperidin-1-yl)-[1,3]thiazolo[5,4-d]pyrimidin-2-yl]-5′-methoxy-6-methyl-[4,4′-bipyridine]-3-carboxamide] belongs > 7.00. Regarding `COc1cnc(Cl)cc1-c1cc(C)ncc1C(=O)Nc1nc2cnc(N3CC4(CC(O)C4)C3)nc2s1` [Example 81, 2′-chloro-N-(5-{6-hydroxy-2-azaspiro[3.3]heptan-2-yl}-[1,3]thiazolo[5,4-d]pyrimidin-2-yl)-5′-methoxy-6-methyl-[4,4′-bipyridine]-3-carboxamide], the pIC50 is > 7.00.

In the case of `COc1cnc(Cl)cc1-c1cc(C)ncc1C(=O)Nc1nc2cnc(NCC(C)(C)O)nc2s1` [Example 77, 2′-chloro-N-{5-[(2-hydroxy-2-methylpropyl)amino]-[1,3]thiazolo[5,4-d]pyrimidin-2-yl}-5′-methoxy-6-methyl-[4,4′-bipyridine]-3-carboxamide], the pIC50 is > 7.00. As for `COc1cnc(F)cc1-c1cc(C)ncc1C(=O)Nc1nc2cnc(N3CCOCC3)nc2s1` [Example 93, 2′-fluoro-5′-methoxy-6-methyl-N-[5-(morpholin-4-yl)-[1,3]thiazolo[5,4-d]pyrimidin-2-yl]-[4,4′-bipyridine]-3-carboxamide], the pIC50 was > 7.00. Still for that read-out and setting: in the case of `COc1ccccc1-c1cnccc1C(=O)Nc1nc2cccnc2s1` [Example 14, 3-(2-methoxyphenyl)-N-{[1,3]thiazolo[5,4-b]pyridin-2-yl}pyridine-4-carboxamide] it was < 6.00; in that of `COc1cnc(Cl)cc1-c1cc(C)ncc1C(=O)Nc1nc2cc(Cl)ncc2s1` [Example 63, 2′-chloro-N-{6-chloro-[1,3]thiazolo[5,4-c]pyridin-2-yl}-5′-methoxy-6-methyl-[4,4′-bipyridine]-3-carboxamide], > 7.00. Still for that read-out and setting: to `COc1cnc(Cl)cc1-c1cc(C)ncc1C(=O)Nc1nc2ncc(N3CCOCC3)cc2s1` [Example 67, 2′-chloro-5′-methoxy-6-methyl-N-[6-(morpholin-4-yl)-[1,3]thiazolo[4,5-b]pyridin-2-yl]-[4,4′-bipyridine]-3-carboxamide] belongs > 7.00.

For `COc1cnc(Cl)cc1-c1cc(C)ncc1C(=O)Nc1nc2cnc(N[C@@H]3CC[C@H](O)C3)nc2s1` (racemic) [Example 49, rac-2′-chloro-N-(5-{[(1R,3S)-3-hydroxycyclopentyl]amino}-[1,3]thiazolo[5,4-d]pyrimidin-2-yl)-5′-methoxy-6-methyl-[4,4′-bipyridine]-3-carboxamide], the pIC50 is > 7.00.

The test is the same for the next values; noted with them: Table B; compounds of Experimental Part B, in vitro; read-out: Polθ ATPase assay IC50.
Consider `COc1cnc(Cl)cc1-c1cc(C)ncc1C(=O)Nc1nc2cc(OCC3CS(=O)(=O)C3)ccc2s1` [Example 113, 2′-chloro-N-{5-[(1,1-dioxo-1-λ6-thietan-3-yl)methoxy]-1,3-benzothiazol-2-yl}-5′-methoxy-6-methyl-[4,4′-bipyridine]-3-carboxamide], for which the pIC50 was 6.00 to 7.00. As to `COc1cnc(Cl)cc1-c1cc(C)ncc1C(=O)Nc1nc2cnc(N3CC(C)(OC)C3)cc2s1` [Example 131, 2′-chloro-5′-methoxy-N-[6-(3-methoxy-3-methylazetidin-1-yl)-[1,3]thiazolo[4,5-c]pyridin-2-yl]-6-methyl-[4,4′-bipyridine]-3-carboxamide], the pIC50 is > 7.00. On the same count and under the same terms, in the case of `COc1cnc(Cl)cc1-c1cc(C)ncc1C(=O)Nc1nc2cnc(OCC(C)(C)O)nc2s1` [Example 133, 2′-chloro-N-[5-(2-hydroxy-2-methylpropoxy)-[1,3]thiazolo[5,4-d]pyrimidin-2-yl]-5′-methoxy-6-methyl-[4,4′-bipyridine]-3-carboxamide] it was > 7.00. As for `COc1cnc(Cl)cc1-c1cc(C)ncc1C(=O)Nc1nc2c(OCC(=O)N(C)C)ncnc2s1` [Example 108, 2′-chloro-N-{7-[(dimethylcarbamoyl)methoxy]-[1,3]thiazolo[5,4-d]pyrimidin-2-yl}-5′-methoxy-6-methyl-[4,4′-bipyridine]-3-carboxamide], the pIC50 was > 7.00. Still for that read-out and setting: in the case of `COc1cnc(Cl)cc1-c1cc(C)ncc1C(=O)Nc1nc2cc(OCC(=O)N(C)C)ccc2s1` [Example 110, 2′-chloro-N-{5-[(dimethylcarbamoyl)methoxy]-1,3-benzothiazol-2-yl}-5′-methoxy-6-methyl-[4,4′-bipyridine]-3-carboxamide] it was > 7.00; in that of `COc1cnc(Cl)cc1-c1cc(C)ncc1C(=O)Nc1nc2cnc(NC[C@H](C)O)nc2s1` [Example 96, 2′-chloro-N-(5-{[(2S)-2-hydroxypropyl]amino}-[1,3]thiazolo[5,4-d]pyrimidin-2-yl)-5′-methoxy-6-methyl-[4,4′-bipyridine]-3-carboxamide], > 7.00.

For `COc1cnc(Cl)cc1-c1cc(C)ncc1C(=O)Nc1nc2cc(OCC3CCN(C(C)=O)CC3)ccc2s1` [Example 109, N-{5-[(1-acetylpiperidin-4-yl)methoxy]-1,3-benzothiazol-2-yl}-2′-chloro-5′-methoxy-6-methyl-[4,4′-bipyridine]-3-carboxamide], the pIC50 was > 7.00.

The pIC50 is the IC50 on a negative log10 scale, so that one unit is a factor of ten.
